Results: ChEMBL document CHEMBL1134265, “2-Aryl indole NK1 receptor antagonists: optimisation of the 2-aryl ring and the indole nitrogen substituent” (Bioorg Med Chem Lett, 2001)

Experiments:
Gerbillinae [1] = assay: In vivo percent inhibition of gerbil foot-tapping after 3 mg/kg, iv administration prior to icv infusion of GR-73632 in vehicle-treated animals; type: functional
Substance-P receptor [2] = target: T1, Substance-P receptor (Homo sapiens, UniProt P25103); assay: Concentration required for displacement of [125I]-labeled substance P from cloned hNK1 receptor expressed in CHO cells(*).; type: cell-based
T1 sequence (P25103 whole entry, the tested form may be a part): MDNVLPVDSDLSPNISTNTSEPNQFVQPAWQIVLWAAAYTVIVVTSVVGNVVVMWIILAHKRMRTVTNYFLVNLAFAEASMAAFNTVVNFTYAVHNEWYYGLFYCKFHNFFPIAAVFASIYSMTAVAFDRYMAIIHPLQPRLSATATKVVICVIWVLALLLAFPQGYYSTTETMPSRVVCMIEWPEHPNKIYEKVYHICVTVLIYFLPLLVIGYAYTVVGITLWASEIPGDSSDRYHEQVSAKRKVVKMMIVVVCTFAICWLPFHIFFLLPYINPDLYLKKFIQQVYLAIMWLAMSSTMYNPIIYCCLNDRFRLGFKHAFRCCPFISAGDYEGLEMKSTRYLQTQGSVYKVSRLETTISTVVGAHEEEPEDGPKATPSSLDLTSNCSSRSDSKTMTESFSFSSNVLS

Gerbillinae [3] = assay: In vivo inhibitory dose against gerbil foot-tapping after iv administration prior to icv infusion of GR-73632 in vehicle-treated animals; type: functional; settings: read-out: ID50 (the source's name)
Gerbillinae [4] = assay: In vivo inhibitory dose against gerbil foot-tapping after iv administration prior to icv infusion of GR-73632 for a duration of 5 min in vehicle-treated animals; type: functional; settings: read-out: ID50 (the source's name)
Substance-P receptor [5] = target: T1, Substance-P receptor; assay: Tested for displacement of [125I]-labeled substance P from cloned hNK1 receptor expressed in CHO cells (*); type: cell-based; settings: concentration not given here
Substance-P receptor [6] = target: T1, Substance-P receptor; assay: Tested for displacement of [125I]-labeled substance P from cloned hNK1 receptor expressed in CHO cells at 100 nM; type: cell-based

Structure (SMILES)	IC50 (Substance-P receptor [2]) [nM]	other results
COc1ccccc1N1CCN(C(=O)CCc2c(-c3ccc(Cl)cc3)[nH]c3ccc(C)cc23)CC1		inhibition in vivo at 3 mg/kg (Gerbillinae [1]): 22%
COc1ccccc1N1CCN(C(=O)CCc2c(-c3ccc(C(C)C)cc3)n(C)c3ccc(C)cc23)CC1	0.33	inhibition in vivo at 3 mg/kg (Gerbillinae [1]): 100%
COc1ccccc1N1CCN(C(=O)CCc2c(-c3ccc(Cl)cc3)n(C(C)C)c3ccc(Cl)cc23)CC1	5.2	
COc1ccccc1N1CCN(C(=O)CCc2c(-c3ccc(Cl)cc3)n(Cc3ccccc3)c3ccc(Cl)cc23)CC1	96	
COc1ccccc1N1CCN(C(=O)CCc2c(-c3ccccc3)[nH]c3ccc(C)cc23)CC1	6.1	
Cc1ccc(-c2c(CCC(=O)N3CCC(O)(Cc4ccccc4)CC3)c3cc(Cl)ccc3n2C)cn1	0.12	ED50 (Gerbillinae [3]): 0.68 mg/kg
COc1ccccc1N1CCN(C(=O)CCc2c(-c3ccccc3Br)[nH]c3ccc(C)cc23)CC1	89	
Cn1c(-c2cccnc2)c(CCC(=O)N2CCC(O)(Cc3ccccc3)CC2)c2cc(Cl)ccc21	0.92	
COc1ccccc1N1CCN(C(=O)CCc2c(-c3ccc(Br)cc3)n(C)c3ccc(C)cc23)CC1	0.14	inhibition in vivo at 3 mg/kg (Gerbillinae [1]): 100%; ED50 (Gerbillinae [4]): 0.5 mg/kg
COc1ccccc1N1CCN(C(=O)CCc2c(-c3ccc(Cl)cc3)n(CC3CC3)c3ccc(Cl)cc23)CC1	103	
COc1ccc(-c2[nH]c3ccc(C)cc3c2CCC(=O)N2CCN(c3ccccc3OC)CC2)cc1	1.5	
COC(=O)Cn1c(-c2ccc(Cl)cc2)c(CCC(=O)N2CCN(c3ccccc3OC)CC2)c2cc(Cl)ccc21	15	
COc1ccccc1N1CCN(C(=O)CCc2c(-c3ccc(C(C)C)cc3)[nH]c3ccc(C)cc23)CC1	0.2	inhibition in vivo at 3 mg/kg (Gerbillinae [1]): 100%
COc1cccc(-c2[nH]c3ccc(C)cc3c2CCC(=O)N2CCN(c3ccccc3OC)CC2)c1	8	
COc1ccccc1N1CCN(C(=O)CCc2c(-c3ccc(-c4ccccc4)cc3)[nH]c3ccc(C)cc23)CC1	7.6	
COc1ccccc1N1CCN(C(=O)CCc2c[nH]c3ccc(C)cc23)CC1		inhibition (Substance-P receptor [5]): 18%
COc1ccccc1N1CCN(C(=O)CCc2c(-c3ccc(C(C)(C)C)cc3)[nH]c3ccc(C)cc23)CC1	6.3	
COc1ccccc1N1CCN(C(=O)CCc2c(-c3ccc(Cl)cc3)n(CCO)c3ccc(Cl)cc23)CC1	0.97	
Cn1c(-c2ccccn2)c(CCC(=O)N2CCC(O)(Cc3ccccc3)CC2)c2cc(Cl)ccc21	2.9	
COc1ccccc1N1CCN(C(=O)CCc2c(-c3ccc(Br)cc3)[nH]c3ccc(C)cc23)CC1		inhibition in vivo at 3 mg/kg (Gerbillinae [1]): 46%
COc1ccccc1N1CCN(C(=O)CCc2c(-c3ccc(Cl)cc3)n(C)c3ccc(Cl)cc23)CC1	0.28	
COc1ccccc1N1CCN(C(=O)CCc2c3n(c4ccc(C)cc24)Cc2ccccc2-3)CC1		inhibition (Substance-P receptor [6]): 55%
COc1ccccc1N1CCN(C(=O)CCc2c(-c3ccc(Cl)cc3)n(C)c3ccc(C)cc23)CC1	0.11	inhibition in vivo at 3 mg/kg (Gerbillinae [1]): 100%
COc1ccccc1N1CCN(C(=O)CCc2c(-c3ccncc3)[nH]c3ccc(C)cc23)CC1		inhibition (Substance-P receptor [5]): 58%
COc1ccccc1N1CCN(C(=O)CCc2c(-c3cccc(Br)c3)[nH]c3ccc(C)cc23)CC1		inhibition (Substance-P receptor [5]): 37%
COc1ccccc1N1CCN(C(=O)CCc2c(-c3ccc(C(F)(F)F)cc3)n(C)c3ccc(C)cc23)CC1	0.14	inhibition in vivo at 3 mg/kg (Gerbillinae [1]): 93%
COc1ccccc1N1CCN(C(=O)CCc2c(-c3ccc(C(F)(F)F)cc3)[nH]c3ccc(C)cc23)CC1	0.44	
Cn1c(-c2ccc(C(F)(F)F)cn2)c(CCC(=O)N2CCC(O)(Cc3ccccc3)CC2)c2cc(Cl)ccc21	0.12	ED50 (Gerbillinae [3]): 0.1 mg/kg
COc1ccccc1-c1[nH]c2ccc(C)cc2c1CCC(=O)N1CCN(c2ccccc2OC)CC1	82	
